Converted amounts (≈) assume the structure as drawn. Some results are limits rather than exact numbers.

The data set can be described thus: Solubility in silicone oil at 25° C. The note with it: oil or lipid.
The term solubility denotes how much of the substance goes into solution per volume. Higher therefore signals a readily soluble substance. `Nc1nc2c(ncn2COCCO)c(=O)[nH]1` [acyclovir] displayed a solubility of under 80 µg/mL. Regarding `Cc1ncc([N+](=O)[O-])n1CCO` [metronidazole], the solubility is 6 µg/mL (≈ 35.1 µM). `CC(C)N1CCN(c2ccc(OCC3COC(Cn4cncn4)(c4ccc(Cl)cc4Cl)O3)cc2)CC1` (stereo not shown) [terconazole] returned a solubility of 200 µg/mL (≈ 376 µM).

In the case of `C[C@]12CC[C@H]3[C@@H](CCC4=CC(=O)CC[C@@]43C)[C@@H]1CC[C@@H]2O` [testosterone], the solubility was 140 µg/mL (≈ 485 µM).
